According to PMC9530963, “A cathelicidin antimicrobial peptide from Hydrophis cyanocinctus inhibits Zika virus infection by downregulating expression of a viral entry factor” (The Journal of Biological Chemistry, 2022):

Tested on: ZIKV
Assay: ZIKV replication stage, U251 cells (peptide added after infection)
Format: cell-based, ZIKV strain PRVABC59
Details: 2.5 μM after ZIKV infection, 48 h; NS3 Western blot
Description: B–I, Vero (B–G), A549 (H), or U251 (I) cells were incubated with ZIKV (MOI = 1) at 37 °C for 2 h, washed with PBS, and transferred with fresh DMEM containing 2% FBS and Hc-CATH (2.5 μM), AC5 (2.5 μM), LL-37 (2.5 μM), or PBS (solvent of peptide). After culture at 37 °C for 48 h, intracellular ZIKV RNA (B), NS3 protein (C, D, H, and I), E protein level (E, the scale bar represents 50 μm), and extracellular ZIKV titer (F and G) were detected by qPCR, Western blot, immunofluorescence staining, and plaque-forming assay, respectively.
Vero cells were incubated with ZIKV (MOI = 1) at 37 °C for 2 h, washed three times with PBS, and transferred with fresh DMEM containing 2% FBS and Hc-CATH (2.5 μM), AC5 (2.5 μM), LL-37 (2.5 μM), or PBS. After culture at 37 °C for 48 h, intracellular ZIKV RNA, NS3 protein, E protein, and extracellular ZIKV titer were detected by qPCR, WB, IF, and plaque-forming assay, respectively. The effect of Hc-CATH on ZIKV replication stage was further tested in A549 and U251 cells under the same condition, and intracellular ZIKV NS3 protein was detected by WB.

Sequence: KFFKRLLKSVRRAVKKFRKKPRLIGLSTLL [Hc-CATH, cathelicidin antimicrobial peptide identified from the sea snake Hydrophis cyanocinctus]
- ZIKV infection in U251 cells, peptide added after infection: did not inhibit ZIKV infection
